“And” between values parts separate entries of the source, which are not always exact repeats. Equal entries are not always repeated. “Also recorded” adds a separate entry of the source.
Legend:
H-EMC-SS cells = experiment: Proliferation of H-EMC-SS cells cultured beforehand with PPARγ siRNA or control siRNA; type: cell-based, human; settings: 400 μM zaltoprofen
Protocol: Cells of the human chondrosarcoma cell line, H-EMC-SS, were cultured in the same manner as that of Example 1 until they became sub-confluent, PPARγ siRNA (Dharmacon, catalog number M-003436-02-0005) that selectively suppresses expression of PPARγ, or a control siRNA (Dharmacon, catalog number D-001206-14-05) was added to the cells at a final concentration of 100 nM, and the cells were cultured for 48 hours. Then, 400 μM zaltoprofen was added to the cells, color development was performed with Cell Counting Kit-8 (CCK-8, Dojindo) 24 hours thereafter, absorbance was measured at 450 nm further 3 hours thereafter, and the absorbance observed with the pretreatment with PPARγ siRNA was compared with the absorbance observed with the pretreatment with the control siRNA (FIG. 70).

[1] = test system: PPARγ expression in H-EMC-SS cells; settings: inventors' earlier reports; cited from earlier work
SW1353 cells [2] = experiment: Proliferation of SW1353 cells cultured beforehand with PPARγ siRNA or control siRNA; type: cell-based, human
OUMS-27 cells = experiment: Suppression of proliferation of human chondrosarcoma cell line OUMS-27 (CCK-8); type: cell-based; settings: at concentrations of 200 μM and 400 μM (50-400 μM tested); 72 hours
[3] = test system: GCTB cultured cells (case 1, case 2; GCT-1, GCT-2); experiment: Suppression of cell proliferation of GCTB cultured cells (Cell Counting Kit-8, WST assay); type: cell-based, human; settings: drug at various concentrations, CCK-8 24 hours after addition
Protocol: Tissue Int., 75:71-77), repeatedly subcultured until there were only spindle-shaped cells, which state was gradually attained from the state that there were also multinucleated giant cells observed in an early stage, and then used for the following analysis. […] Zaltoprofen was added as a solution in DMSO (dimethyl sulfoxide) prepared at a concentration 1000 times higher than the final concentration, and the solution was added in a volume of 0.1% of the volume of the medium. The same shall apply to the other drugs used in the following examples. […]

human PVNS cells = experiment: Proliferation of human PVNS cells cultured beforehand with PPARγ siRNA or control siRNA; type: cell-based; settings: PPARγ siRNA 100 nM 48 hours, 100 μM rosiglitazone or 400 μM zaltoprofen
[4] = test system: pigmented villonodular synovitis (PVNS); experiment: Curative effect of zaltoprofen (Soleton Tablet) on PVNS patients; type: in vivo, human
Protocol: Soleton Tablet 80 (generic name: zaltoprofen, 80 mg, Nippon Chemiphar) was administered to a patient with giant cell tumor of bone (GCTB), patient with giant cell tumor of tendon sheath (GCTT), or patient with pigmented villonodular synovitis (PVNS) at a dose of 3 tablets per day (one tablet was administered in the morning, at noon, and in the evening), and the tumor size was evaluated by MRI every several months.
PVNS patients were administered with 3 tablets per day (one tablet was administered in the morning, at noon, and in the evening) of Soleton Tablet 80 (generic name; zaltoprofen, 80 mg, Nippon Chemiphar). Four weeks after the start of the administration, the tumor size was evaluated by imaging based on simple Roentgen contrast method, X-ray CT, and MRI (nuclear magnetic resonance imaging). Then, the tumors were excised from patients for whom surgical operation was possible, administration of zaltoprofen was continued at a dose of 240 mg per day (one 80 mg tablet was administered at the time of breakfast, lunch, and supper), and the tumor size was evaluated by imaging based on simple Roentgen contrast method, X-ray CT, and MRI (nuclear magnetic resonance imaging) every 16 weeks. Also for patients for whom surgical operation was difficult, administration of 240 mg zaltoprofen per day (one 80 mg tablet was administered at the time of breakfast, lunch, and supper) was continued, and the tumor size was evaluated by imaging based on simple Roentgen contrast method, X-ray CT, and MRI (nuclear magnetic resonance imaging) every 8 weeks.

[5] = test system: cells of pigmented villonodular synovitis (PVNS); experiment: Fat cell differentiation of PVNS cells (HCS LipidTOX Green); type: cell-based, human; settings: zaltoprofen 400 μM, compared with control
Protocol: It has been reported that PPARγ is a transcription factor indispensable for fat cell differentiation. Therefore, the GCTB cultured cells of the aforementioned case 1 were cultured on chamber cover slide glass, and when they reached confluent, zaltoprofen was added to the cells at various concentrations (10, 50, and 100 μM). From 24 hours thereafter, the cells were cultured in a fat cell differentiation-inducing medium (STREMPRO Adipogenesis Differentiation Kit, Invitrogen) for 7 to 14 days, and differentiation into fat cells was analyzed with HCS Lipid TOX Green Neutral Lipid Stain (Invitrogen) (FIGS. 8 and 9).
It has been reported that PPARγ is a transcription factor indispensable for fat cell differentiation. Therefore, in the same manner as that of Example 3, zaltoprofen was added at a concentration of 400 μM to the cells of giant cell tumor of tendon sheath (GCTT) or cells of pigmented villonodular synovitis (PVNS), and differentiation into fat cells was analyzed (FIGS. 30 and 31). As a result, it was successfully confirmed that the positive images obtained with HCS LipidTOX Green increased in the zaltoprofen-added cells compared with the control.

[6] = test system: PPARγ expression in H-EMC-SS cells; experiment: PPARγ immunostaining of chondrosarcoma cell line H-EMC-SS; type: cell-based, human; settings: zaltoprofen 200 μM, troglitazone 100 μM or pioglitazone 200 μM
[7] = test system: cultured cells of pigmented villonodular synovitis (PVNS); experiment: Suppression of cell proliferation of PVNS cultured cells (CCK-8); type: cell-based, human; settings: PVNS cells; drug at various concentrations; CCK-8 24 hours after addition
SW1353 cells [8] = experiment: Cell invasion of SW1353 cells (Matrigel Invasion Chamber); type: cell-based, human
Description: For the analysis of cell invasion, Matrigel™ Invasion Chamber (BD Bioscience, catalog number 354480), which uses Matrigel as the matrix, was used. […] FIGS. 76 and 77 show microphotographs of invaded cells fixed by immersion into a 4% paraformaldehyde solution, and stained with hematoxylin (magnification is 200 times). From the microphotographs of FIGS. 76 and 77, the patterns of the invaded cells can be understood.

[9] = test system: cultured cells of giant cell tumor of tendon sheath (GCTT); experiment: Suppression of cell proliferation of GCTT cultured cells (CCK-8); type: cell-based, human; settings: drug at various concentrations, CCK-8 24 hours after addition
[10] = recurrence of PVNS in the right knee (person; case b), after two months

Compound: CC(C(=O)O)c1ccc2c(c1)CC(=O)c1ccccc1S2 (stereo not drawn) [zaltoprofen]
- suppression of proliferation of H-EMC-SS cells (H-EMC-SS cells; 24 hours): suppressed proliferation
- cell proliferation-suppressing action with PPARγ siRNA (H-EMC-SS cells; H-EMC-SS, PPARγ siRNA 100 nM 48 hours): completely eliminated
- expression of PPARγ in H-EMC-SS cells [1]: promoted expression of PPARγ
- suppression of proliferation of SW1353 cells (SW1353 cells [2]; 400 μM zaltoprofen, 24 hours): about 38%
- cell proliferation-suppressing action when expression of PPARγ is suppressed by siRNA (SW1353 cells [2]; SW1353, PPARγ-siRNA 100 nM 48 hours, 400 μM zaltoprofen or 100 μM rosiglitazone): substantially eliminated
- suppression of proliferation of OUMS-27 cells (OUMS-27 cells): suppressed proliferation
- suppression of cell proliferation (live cell count, absorbance at 450 nm) [3]: concentration-dependent suppression of the cell proliferation; also recorded: suppressed proliferation
- cell proliferation-suppressing action with PPARγ siRNA (human PVNS cells): substantially completely eliminated
- diameter of PVNS after taking zaltoprofen ([4]; PVNS case a, shoulder joint, about 50 weeks, 27.7 mm before): 7.9 mm
- diameter (major axis) of PVNS after taking zaltoprofen ([4]; PVNS case c, right knee joint, about 35 weeks, 59.5 mm before): 47.2 mm and 48.0 mm
- KPS score after taking zaltoprofen ([4]; PVNS cases a and b, score 70 before): 100
- change of PVNS ([4]; PVNS cases a, b, c, d, e, and f, no treatment except zaltoprofen): shrank
- KPS score after taking zaltoprofen ([4]; PVNS cases c and d, score 80 before): 90
- new metastasis during the taking of zaltoprofen ([4]; PVNS patients): any new metastasis of PVNS was not observed
- recurrence during the taking of zaltoprofen after ablative operation ([4]; PVNS patients subjected to ablative operation): no recurrence of PVNS could be confirmed
- shrinkage of PVNS in patients who took zaltoprofen ([4]; all the patients): shrinkage of PVNS could be confirmed in all the patients
- number of cases judged to be partial response (PR) ([4]; among 11 PVNS cases for which the response rate was determined, 240 mg per day): one
- cases in which the KPS score worsened ([4]; cases of PVNS who took zaltoprofen): no case in which the KPS score worsened
- response judgement of all the PVNS patients who took zaltoprofen ([4]; human, in vivo): partial response (PR) or stable disease (SD)
- MRI imaging effect ([4]; recurrence of PVNS in the right knee (case i), 3 tablets per day, after three months): attenuation of the MRI imaging effect
- pain and knee-joint excursion ([4]; recurrence of PVNS in the right knee (case i), after three months): improvement was observed
- pain [4, 10]: improvement of pain
- tumor size by MRI [4, 10]: shrinkage of tumor
- positive images obtained with HCS LipidTOX Green (differentiation into fat cells) [5]: increased
- expression of PPARγ (PPARγ-positive images) [6]: expression of PPARγ could be confirmed
- suppression of cell proliferation (absorbance at 450 nm) [7]: cell proliferation was suppressed
- cell injury seen in microphotographs of invaded cells (SW1353 cells [8]; 100 μM troglitazone, 50 μM celecoxib or 400 μM zaltoprofen, cells only sparsely existed and rolled into small balls): cell injury was realized
- cell invasion remaining (suppressed to) (SW1353 cells [8]; 400 μM zaltoprofen, 24 hours): lower than 20%
- suppression of cell invasion of SW1353 cells (SW1353 cells [8]; all set concentrations, concentration-dependent, 24 hours): suppressed the cell invasion
- suppression of cell proliferation (absorbance at 450 nm) [9]: cell proliferation was suppressed

From patent US10653667B2, “Drug for preventing, treating or preventing metastasis of giant cell tumor that occurs in bone or soft parts, chondrosarcoma, or osteosarcoma, local injection for arterial embolization, and artificial bone” (NIPPON CHEMIPHAR CO., LTD, priority 2013, dated 2020)
